Assays:
[1] = tested on: Nicotiana tabacum plants; settings: plants homozygous for both mutations versus plants homozygous for each single mutation; cited from earlier work
[2] = tested on: wheat plants (Triticum aestivum L. cv CDC Teal and mutant lines); assay: Whole-plant reaction to imazamox spray (resistant / intermediate / susceptible rating); format: in vivo
Source text: Approximately 40,000 seeds of Triticum aestivum L. cv CDC Teal (Hughes and Hucl, 1993 Can. J. Plant Sci. 73:193-197) were mutagenized using modified procedures described by Washington and Sears (1970). Seeds were pre-soaked in distilled water for four hours, followed by treatment with 0.3% EMS for six hours. Seeds were rinsed continually with tap water for seven hours and allowed to dry for approximately four hours before being planted in the field. The M1 plants were selfed and the seed was harvested in bulk. Approximately 2×10^6 M2 plants were grown in the field the following year and were sprayed at the two leaf stage with imazamox at a rate of 40 g ai ha^−1 in a spray volume of 100 L ha^−1. Merge 0.05% (v/v) adjuvant was added to the spray solution. Six lines resistant to imazamox were selected and designated as lines 1A, 9A, 10A, 11A, 15A, and 16A. The M3 and M4 generations were grown in a walk-in growth chamber and plants resistant to imazamox were selected using rates of 20 g ai ha^−1. Resistant plants were selected in the M5 generation after application of 40 g ai ha^−1 in the field. M5 seed was homozygous for the trait, as progeny testing detected no segregation for resistance to imazamox.
To determine the genetic control of resistance to imazamox in the six wheat lines, reciprocal crosses between the six homozygous resistant M6 lines and CDC Teal (susceptible to imazamox) were made. Randomly selected F1 plants from each of the crosses were backcrossed to CDC Teal to form backcross (BC)F1 populations. To investigate allelism, all possible inter-crosses between the six mutants and SWP965001 (Grandin/3*Fidel—FS-4) were made. SWP965001 is a spring wheat line that is homozygous for the FS-4 allele. Parental genotypes were grown in a walk-in growth chamber with a 16 hour photoperiod and a 24° C. day and 16° C. night temperature regime. Spikes that were ¾ emerged from the boot were emasculated and then pollinated 2-3 days after the emasculation date. Randomly selected F2 plants from all segregating crosses were selfed to produce F2:3 families. Parental, F1, BCF1, F2 plants and F2:3 families were tested for reaction to imazamox. All experiments were conducted in a walk-in growth chamber with a 16 hour photoperiod and a 23° C. day and 16° C. night temperature regime. A completely random design was used for all experiments. In experiments involving F2:3 families, effort was taken to randomize both within and among families. The F1 and F2 populations were screened in the same experiment along with parental genotypes and CDC Teal as controls. Both the BCF1 and F2:3 populations were screened in two separate experiments along with appropriate parental genotypes as controls.
Herbicide treatments were applied to plants growing in 8×16 cell flats at the two leaf stage using a traveling cable sprayer calibrated to spray 100 L ha^−1. Imazamox was applied to plants at a rate of 20 g ai ha^−1 using an 8001 EVS nozzle at a pressure of 275 kPa. Merge surfactant (0.05% v/v) was added to the herbicide solution prior to application. Fifteen days after herbicide application, plants were rated based on parental reactions and were considered as resistant, intermediate, or susceptible. […] For Mendelian analysis of the segregating populations, plants were scored into resistant and susceptible categories and tested for goodness of fit to various 1 gene, 2 gene and 3 gene models using chi-square analysis. […]

[3] = tested on: wheat genotypes (BW755, Teal15A, 15A/11A); assay: Injury of wheat genotypes treated with 10× or 30× rate of imazamox; format: in vivo, Triticum aestivum
Source text: FIG. 7 is a table comparing injury sustained by three wheat genotypes when treated with either a 10× or 30× rate of imazamox. The 1× rate is 20 g/ha. BW755 contains the FS4 mutant gene. 15A/11A is a bulk of selfed progeny from the cross of Teal11A and Teal15A. The population was not yet homozygous at all three non-allelic loci.
The presence of two IMI nucleic acids in Teal 15A provides increased tolerance to imidazolinone herbicides compared to a line such as BW755 carrying only one IMI nucleic acid. This increased tolerance is reflected both in less injury at higher herbicide rates, but in having more uninhibited AHAS enzyme activity.
Combining three non-allelic genes each conferring tolerance to imidazolinone herbicides results in greater tolerance than with only two non-allelic genes (FIG. 7).

| Structure (SMILES) | resistance to foliar applications relative to single mutation plants [1] | reaction to imazamox ([2]; CDC Teal (wild type parent)) | survival after application of imazamox ([2]; F1 plants of reciprocal crosses between resistant lines and CDC Teal, 20 g ai ha^−1) | reaction to imazamox ([2]; F1 plants of resistant lines crossed with CDC Teal, except 15A×Teal, 20 g ai ha^−1) | reaction to imazamox ([2]; fourteen F1 plants from 15A×Teal cross, 20 g ai ha^−1) | reaction to imazamox ([2]; selected lines 1A, 9A, 10A, 11A, 15A, 16A, M2 plants in field, two leaf stage, 40 g ai ha^−1) | plant injury ([3]; 10× rate (200 g/ha), one gene plants (BW755, FS4)) | plant injury ([3]; 10× rate (200 g/ha), two gene plants (Teal 15A)) | plant injury ([3]; 30× rate (600 g/ha), homozygous population of Teal15A) | plant injury ([3]; 30× rate (600 g/ha), still-segregating selfed population of Teal15A crossed with Teal11A) |
| --- | --- | --- | --- | --- | --- | --- | --- | --- | --- | --- |
| COc1nc(C)nc(NC(=O)NS(=O)(=O)c2ccccc2Cl)n1 [chlorsulfuron] | five-fold more resistant | – | – | – | – | – | – | – | – | – |
| COCc1cnc(C2=NC(C)(C(C)C)C(=O)N2)c(C(=O)O)c1 (stereo not shown) [imazamox] | – | susceptible | survived | intermediate reaction | resistant | resistant | all treated one gene plants were injured | no two gene plants were injured | all plants of the homozygous population of Teal15A sustained injury | over half of plants sustained no injury |

From patent US9695438B2, “Wheat plants having increased resistance to imidazolinone herbicides” (University of Saskatchewan, priority 2001, dated 2017)
